SMILES strings stand for the structures.

This is an account of results in paper PMC5458179, “Oxidative DNA double strand breaks and autophagy in the antitumor effect of sterically hindered platinum(II) complexes in NSCLCs” (Oncotarget, 2017).

Common to all, as to type: cell-based, human
One experiment concerns p-Akt. Briefly: Western blot of PI3K/Akt/mTOR pathway. Particulars: A549, 10 μM, 24 h, relative to control. The source says:
(§1) The mammalian target of rapamycin (mTOR) kinase is used to regulate autophagy as controlled though oxidative stress, hypoxia and growth receptors. The phosphatidylinosital-3 kinase (PI3K)/Akt signaling pathway activates mTOR through phosphorylating and inactivating the tuberous sclerosis complex (TSC)1–TSC2 complex. Inhibition of mTOR results in activation of autophagy. […] At the same time, levels of the p-Akt protein decreased to 0.95-, 1.02-, and 0.39-folds, respectively (Figure 7B). […] As a results, the administration of complex 3 decreased levels of proteins in PI3K/Akt/mTOR signaling pathways.
(§2) Lysates were centrifuged at 12,000 g for 0.5 h at 4°C. The concentrations of total proteins were measured using the BCA assay method with Varioskan spectrofluorometer and spectrophotometer (Thermo, Waltham, MA) at 562 nm. Protein (20–100 μg) prepared from the indicated cells was loaded per lane and electrophoresed in 8% or 10% sodium dodecyl sulfate polyacrylamide gel electrophoresis (SDS-PAGE), and then transferred onto polyvinylidene difluoride (PVDF) Immobilon-P membrane (Bio-Rad, USA) using a transblot apparatus (Bio-Rad, USA). The membranes were blocked with 5% (w/v) non-fat milk at 0.5 h at 37°C, followed by overnight incubation at 4°C with primary antibodies diluted in PBST. After washing with PBST, the membranes were incubated for 1 h with an IRDye´800 conjugated secondary antibody diluted 1:20000 in PBST, and the labeled proteins were detected with an Odyssey Scanning System (Li-COR., Lincoln, Nebraska, USA).
(In general: In western blotting, separated proteins are transferred to a membrane and probed.)

Another experiment deals with p-mTOR. Briefly: Western blot of PI3K/Akt/mTOR pathway. The settings on record: A549, 10 μM, 24 h, relative to control.
From the text: as §1, §2

The test system of another experiment is HepG2. Briefly: MTT cytotoxicity assay. Particulars: 48 h drug exposure. How it is done:
(§3) The results reveal that the steric hindrance plays a significant role in the cytotoxicity of complex 3.
(§4) Human cancer cell lines HepG2, SGC-7901, HCT-116, A549, NCI-H1299 and MCF-7 as well as normal liver cell line L02 were purchased from the Cell Bank of Shanghai Institute of Cell Biology. Among them, MCF-7, HepG2 cells were cultured at 37 °C in 5% CO2 with DMEM supplemented with 10% fetal bovine serum (FBS) (Hyclone, Lifescience, USA) and 1% penicillin/streptomycin (Beyotime, Nantong, China), while HCT-116, SGC-7901, A549, NCI-H1299 and L02 cells were cultured at 37 °C in 5% CO2 with RPMI-1640 supplemented with 10% FBS and 1% penicillin/streptomycin. Cells were passed every 2 days and restarted from frozen stocks upon reaching pass number 20.
(§5) In vitro cytotoxicity of the platinum compounds against human hepatocellular carcinoma (HepG-2), gastric carcinoma (SGC-7901), non-small-cell lung cancer (A549), and colorectal cancer (HCT-116) cell lines were measured by the MTT assays. Briefly, the cells were seeded in 96-well cultured plates at a density of 5000 cells/well. After overnight incubation (16 h), the cells were treated with the platinum complexes. After 48 h of incubation, 10 μL of a freshly diluted 3-(4,5-dimethyl-2-thiazolyl)-2,5-diphenyl-2H-tetrazolium bromide (MTT) solution (5 mg/mL) were added to each well and the plates were incubated at 37 °C in a humidified 5% CO2 atmosphere for 4 h. At the end of the incubation period the medium was removed and the formazan product was dissolved in 150 μL of DMSO. The cell viability was evaluated by measurement of the absorbance at 490 nm, using an Absorbance Reader (BioRad). IC50 values (compound concentration that produces 50% of cell growth inhibition) were calculated from curves constructed by plotting cell survival inhibitory rate (%) versus drug concentration logarithm. All experiments were repeated in three times. The reading values were converted to the percentage of control (% cell survival). Cytotoxic effects were expressed as IC50 values.
A general note: Tetrazolium dyes change colour on reduction, which living cells bring about.

For a further experiment, the system named is HCT-116. Briefly: MTT cytotoxicity assay. Particulars: 48 h drug exposure. How it is done:
as §3, §4, §5

Another experiment relates to SGC-7901. Briefly: MTT cytotoxicity assay. Particulars: 48 h drug exposure. How it is done:
as §3, §4, §5

The next experiment relates to MCF-7. Briefly: MTT cytotoxicity assay. Particulars: exposed for 48 h. How it is done: as §4
In vitro cytotoxicity of the platinum compounds against human hepatocellular carcinoma (HepG-2), gastric carcinoma (SGC-7901), non-small-cell lung cancer (A549), and colorectal cancer (HCT-116) cell lines were measured by the MTT assays. Briefly, the cells were seeded in 96-well cultured plates at a density of 5000 cells/well. After overnight incubation (16 h), the cells were treated with the platinum complexes. […] The cell viability was evaluated by measurement of the absorbance at 490 nm, using an Absorbance Reader (BioRad). […] The reading values were converted to the percentage of control (% cell survival). Cytotoxic effects were expressed as IC50 values.

A further experiment deals with A549 cells. Briefly: Autophagy by acridine orange flow cytometry (AVOs). How it is done: The role of complex 3-induced autophagy in cell death was further analyzed (Figure 6). When A549 cancer cells were treated with complex 3 of 10 μM, the protein expression of LC3-II was increased (Figure 6A). […] Treatment with complex 3 for 24 h caused a 4.5-folds increase in cells undergoing autophagy (Figure 6C). […] Moreover, Bax and Bcl-2 expressions were measured by western blot analysis of whole cell lysates.
To investigate the role of ROS in complex 3-induced cell death, the level of intracellular H2O2 was measured. […] Exposure of A549 cells to NAC reduced levels of LC3-II from 2.3- to 1.5-folds (Figure 8B). […] In parallel, the complex 3-induced increase ratio of Bax/Bcl-2 was suppressed by NAC (Figure 8E).
Flow cytometry with acridine orange staining as described in a previous study was used to detect and quantify the AVOs, one of the characteristicsof autophagy. At the end of individual experiments, A549 cells were collected in phenol red-free RPMI 1640 medium. Green (FL-1) and red (FL-3) fluorescences of acridine orange were measured using a flow cytometer and CellQuest software (Becton Dickinson, San Jose, CA). The sum of the upper-left and upper-right quadrants of the cytogram was used to estimate the percentage of cells undergoing autophagy.
In general terms: In flow cytometry, cells or beads pass a laser one at a time.

`CC(C)C[NH+]1[C@@H]2CCCC[C@H]2[NH+](CC(C)C)[Pt-2]12[O]C(=O)CC(=O)[O]2` (some centres unmarked) [Complex 3]: the “levels of the p-Akt protein” value in the experiment with p-Akt stood at 1.02 folds. The “amounts of p-mTOR” value in the experiment on p-mTOR came out at 1.41 folds. Moreover, the IC50 was 52.9 ± 4.37 µM in the experiment with HepG2, 38.6 ± 2.67 µM in the experiment with HCT-116, 38.6 ± 2.49 µM in the experiment with SGC-7901 and 32.5 ± 2.9 µM in the experiment on MCF-7. Moreover, the percentage of autophagy with A549 cells (A549, 10 μM complex 18 h, without NAC) is listed as 42.5%; in the experiment with A549 cells (A549, 5 mM NAC 2 h pretreatment then 10 μM complex 18 h) it was 11.8%. Besides, the “increase in cells undergoing autophagy” value in the experiment with A549 cells (A549, 10 μM, 24 h) amounted to 4.5 folds.
For `O=C1[O][Pt]2([NH][C@@H]3CCCC[C@H]3[NH]2)[O]C1=O` [Oxaliplatin, oxaliplatin, reference compound], in the experiment with p-Akt, the “levels of the p-Akt protein” value was 0.95 folds. Moreover, in the experiment on p-mTOR, the “amounts of p-mTOR” value was found to be 1.15 folds. Moreover, the IC50 in the experiment with HepG2 stood at 16.6 ± 0.56 µM; with HCT-116 it was 19.1 ± 1.89 µM; in the experiment with SGC-7901, 24.2 ± 0.35 µM.

The term IC50 denotes the concentration at which inhibition is half-maximal. Higher therefore signals a need for much substance.
